We go through three molecules from US3956510A, “Certain mixed antibacterials” (priority 1974, dated 1976).

Experiment [1] has as its system Pseudomonas aeruginosa. As to the kind of experiment: bacteriostatic activity / minimum inhibitory concentration against Pseudomonas aeruginosa. The experiment is classed as cell-based.
Experiment [2] has as its system Pseudomonas aeruginosa. The conditions noted are these: alone; is reported; cited from earlier work.
The next experiment concerns bacteria. The note with it: cited from earlier work.

Consider `Oc1cc(Cl)ccc1Oc1ccc(Cl)cc1Cl` [2,4,4'-trichloro-2'-hydroxydiphenyl ether], for which the “activity in the presence of a surfactant” value with Pseudomonas aeruginosa [1] (in the presence of a surfactant such as soap) was “no practical activity is demonstrable”. In the experiment on Pseudomonas aeruginosa [2], the minimum inhibitory concentration entry is on record as “greater than 300 ppm”.

Regarding `O=C(Nc1ccc(Br)cc1)c1cc(Br)cc(Br)c1O` [3,4',5-tribromo salicylanilide], the bacteriostatic activity in the experiment on Pseudomonas aeruginosa [1] (alone, under the most ideal conditions) came out at 75 ppm; in the experiment with Pseudomonas aeruginosa [1] (with 2% soap, based on active ingredient) it was 160 ppm.

benzalkonium chloride: the “bactericidal effect on dried bacteria coated with a greasy film” value with bacteria (dried bacteria coated with a greasy film, Rahm 1946) was “can survive many hours of contact”. Besides, the bactericidal effect entry in the experiment on bacteria (ordinarily) is “ordinarily kills bacteria”.
